# From patent US20150245611A1, “ACTIVE INGREDIENT FOR CONTROLLING TRUE SPIDER MITES” (BAYER CROPSCIENCE AG, priority 2014, published 2015)
# Columns and labels:
# Format in all cases: in vivo
# [1] = test system: Polyphagotarsonemus latus; experiment: Polyphagotarsonemus latus test; outdoor spray treatment (HEMTLA) on chilli plants; settings: C. frutescens
# Description: (§1) To produce an appropriate active ingredient formulation, 1 part by weight of active ingredient is mixed with the stated amounts of water to the desired concentration. Added to the spray liquor is 0.1% a.i. Crovol.
# Three chilli plants (Capsicum frutescens) infested by all stages of the broad mite (Polyphagotarsonemus latus) are sprayed with an active ingredient formulation of each desired concentration. A spray application with a water application rate of 458 l/Ha is conducted in each case.
# (§2) After the desired time, the remaining mites per leaf are counted and calculated as the efficacy by the Abbott formula: […]
# [2] = test system: Polyphagotarsonemus latus; experiment: Polyphagotarsonemus latus test; outdoor spray treatment (HEMTLA) on bean plants; settings: Ph. vulgaris, three sprays at 7-day intervals
# Description: as §1
# Three bean plants (Phaseolus vulgaris) infested by all stages of the broad mite (Polyphagotarsonemus latus) are sprayed with an active ingredient formulation of each desired concentration. Each plant is treated three times at 7-day intervals with a spray application with a water application rate of 200 l/Ha. The juncture of treatment of the plants with the first spray application X corresponds to the start point of the evaluation (Dat=0) (Dat=days after treatment). The further treatments were effected after 7 days (spray application Y), the third treatment after 14 days (spray application Z).
# as §2
# Tetranychus urticae [3] = experiment: Tetranychus urticae test; outdoor spray treatment (TETRUR) on cotton plants; settings: G. hirsutum
# Description: as §1
# Three cotton plants (Gossypium hirsutum) infested by all stages of the red spider mite (Tetranychus urticae) are sprayed with an active ingredient formulation of each desired concentration. One spray application is conducted in each case.
# After the desired time, the remaining mites per leaf are counted and calculated as the efficacy by the Abbott formula:
# [formula] • B=treated plots • K=untreated control plots
# Tetranychus urticae [4] = experiment: Tetranychus urticae test; outdoor spray treatment (TETRUR) on aubergine plants; settings: S. melongena
# Description: as §1
# Three aubergine plants (Solanum melongena) infested by all stages of the red spider mite (Tetranychus urticae) are sprayed with an active ingredient formulation of each desired concentration. One spray application is conducted in each case.
# as §2
# [5] = test system: Polyphagotarsonemus latus; experiment: Polyphagotarsonemus latus test; outdoor spray treatment (HEMTLA) on bell pepper plants; settings: Capsicum annuum, 100 g of ai/ha
# Description: as §1
# Three bell pepper plants (Capsicum annuum) infested by all stages of the broad mite (Polyphagotarsonemus latus) are sprayed with an active ingredient formulation of each desired concentration. A spray application with a water application rate of 500 l/Ha is conducted in each case.
# as §2
# [6] = test system: Polyphagotarsonemus latus; experiment: Polyphagotarsonemus latus test; outdoor spray treatment (HEMTLA) on aubergine plants; settings: S. melongena, 100 g of ai/ha, Dat 16
# Description: as §1
# Three aubergine plants (Solanum melongena) infested by all stages of the broad mite (Polyphagotarsonemus latus) are sprayed with an active ingredient formulation of each desired concentration. A spray application with a water application rate of 500 l/Ha is conducted in each case.
# as §2
# [7] = 75 g of ai/ha (+Crovol 0.1%), Dat 7
# [8] = 100 g of ai/ha (+Crovol 0.1%), Dat 7
# [9] = 100 g of ai/ha (+Crovol 0.1%), Dat 14
# [10] = 100 g of ai/ha (+Crovol 0.1%), Dat 21
smiles,measurement,setting,value
Cn1nc(C(F)(F)C(F)(F)F)c(C(F)(F)F)c1C(=O)Nc1ccc(Cl)c(C(=O)NCc2ccccc2)c1 [Compound (I)],Efficacy (% Abbott),[1]; [7],63 % Abbott
same,Efficacy (% Abbott),"[1]; 75 g of ai/ha (+Crovol 0.1%), Dat 14",67 % Abbott
same,Efficacy (% Abbott),"[1]; 75 g of ai/ha (+Crovol 0.1%), Dat 21",50 % Abbott
same,Efficacy (% Abbott),[1]; [8],75 % Abbott
same,Efficacy (% Abbott),[1]; [9],75 % Abbott
same,Efficacy (% Abbott),[1]; [10],83 % Abbott
same,Efficacy (% Abbott),"[2]; 75 g of ai/ha (+Crovol 0.1%), Dat 3",72 % Abbott
same,Efficacy (% Abbott),[2]; [7],80.7 % Abbott
same,Efficacy (% Abbott),"[2]; 75 g of ai/ha (+Crovol 0.1%), Dat 14 (Y)",81.2 % Abbott
same,Efficacy (% Abbott),"[2]; 75 g of ai/ha (+Crovol 0.1%), Dat 21 (Z)",79.2 % Abbott
same,Efficacy (% Abbott),"[2]; 75 g of ai/ha (+Crovol 0.1%), Dat 28",49.7 % Abbott
same,Efficacy (% Abbott),"[2]; 100 g of ai/ha (+Crovol 0.1%), Dat 3",81.4 % Abbott
same,Efficacy (% Abbott),"[2]; 100 g of ai/ha (+Crovol 0.1%), Dat 7 (Y)",91.5 % Abbott
same,Efficacy (% Abbott),"[2]; 100 g of ai/ha (+Crovol 0.1%), Dat 14 (Z)",90 % Abbott
same,Efficacy (% Abbott),[2]; [10],91.9 % Abbott
same,Efficacy (% Abbott),"[2]; 100 g of ai/ha (+Crovol 0.1%), Dat 28",52.7 % Abbott
same,Efficacy (% Abbott),"Tetranychus urticae [3]; 100 g of ai/ha (+Crovol 0.1%), Dat 4",100 % Abbott
same,Efficacy (% Abbott),"Tetranychus urticae [3]; 100 g of ai/ha (+Crovol 0.1%), Dat 6",100 % Abbott
same,Efficacy (% Abbott),"Tetranychus urticae [4]; 100 g of ai/ha (+Crovol 0.1%), Dat 5",99 % Abbott
same,Efficacy (% Abbott),Tetranychus urticae [4]; [8],100 % Abbott
same,Efficacy (% Abbott),Tetranychus urticae [4]; [9],100 % Abbott
same,Efficacy (% Abbott),Tetranychus urticae [4]; [10],99 % Abbott
same,Efficacy (% Abbott),"Tetranychus urticae [4]; 100 g of ai/ha (+Crovol 0.1%), Dat 29",99 % Abbott
same,Efficacy (% Abbott),[5]; Dat 3,100 % Abbott
same,Efficacy (% Abbott),[5]; Dat 7,99.8 % Abbott
same,Efficacy (% Abbott),[5]; Dat 15,95.9 % Abbott
same,Efficacy (% Abbott),[5]; Dat 21,85.5 % Abbott
same,Efficacy (% Abbott),[6],100 % Abbott
"Cc1nn(C)c(/C(OC(=O)C(C)(C)C)=C(\C#N)c2ccc(C(C)(C)C)cc2)c1C [Cyenopyrafen, reference compound]",Efficacy (% Abbott),"[1]; 150 g of ai/ha, Dat 7",28 % Abbott
same,Efficacy (% Abbott),"[1]; 150 g of ai/ha, Dat 14",45 % Abbott
same,Efficacy (% Abbott),"[1]; 150 g of ai/ha, Dat 21",0 % Abbott
same,Efficacy (% Abbott),"[2]; 150 g of ai/ha, Dat 3",83.7 % Abbott
same,Efficacy (% Abbott),"[2]; 150 g of ai/ha, Dat 7 (Y)",63.8 % Abbott
same,Efficacy (% Abbott),"[2]; 150 g of ai/ha, Dat 14 (Z)",48.5 % Abbott
same,Efficacy (% Abbott),"[2]; 150 g of ai/ha, Dat 21",58.1 % Abbott
same,Efficacy (% Abbott),"[2]; 150 g of ai/ha, Dat 28",0 % Abbott
same,Efficacy (% Abbott),"Tetranychus urticae [3]; 150 g of ai/ha, Dat 4",98 % Abbott
same,Efficacy (% Abbott),"Tetranychus urticae [3]; 150 g of ai/ha, Dat 6",99 % Abbott
"CC(C)(C)c1ccc(CCOc2ncnc3ccccc23)cc1 [Fenazaquin, reference compound]",Efficacy (% Abbott),[5]; Dat 3,92.3 % Abbott
same,Efficacy (% Abbott),[5]; Dat 7,96 % Abbott
same,Efficacy (% Abbott),[5]; Dat 15,77.4 % Abbott
same,Efficacy (% Abbott),[5]; Dat 21,33.5 % Abbott
same,Efficacy (% Abbott),[6],97.9 % Abbott
"CCC(C)(C)C(=O)OC1=C(c2ccc(Cl)cc2Cl)C(=O)OC12CCCCC2 [Spirodiclofen, reference compound]",Efficacy (% Abbott),"Tetranychus urticae [4]; 48 g of ai/ha, Dat 5",63 % Abbott
same,Efficacy (% Abbott),"Tetranychus urticae [4]; 48 g of ai/ha, Dat 7",89 % Abbott
same,Efficacy (% Abbott),"Tetranychus urticae [4]; 48 g of ai/ha, Dat 14",97.5 % Abbott
same,Efficacy (% Abbott),"Tetranychus urticae [4]; 48 g of ai/ha, Dat 21",95 % Abbott
same,Efficacy (% Abbott),"Tetranychus urticae [4]; 48 g of ai/ha, Dat 29",80 % Abbott
